According to US12427134B2, “Methods of reducing the risk of cardiovascular events in a subject with atrial fibrillation and/or atrial flutter” (priority 2019, dated 2025):

Test system: hypertriglyceridemic patients with cardiovascular disease or at high risk for cardiovascular disease
Assay: REDUCE-IT: time to first occurrence of adjudicated cardiovascular endpoint events (primary, key secondary, other secondary, tertiary; sensitivity and landmark analyses)
Assay type: in vivo
Excerpt: The following study, also referred to as the REDUCE-IT clinical trial, was a large cardiovascular (CV) outcome trial designed to assess CV risk reduction benefit of AMR101 treatment (commercially known as VASCEPA®) versus placebo on the 5-point primary composite endpoint: CV death, non-fatal stroke, non-fatal myocardial infarction (MI), coronary revascularizations, or unstable angina requiring hospitalization.
A multi-center, prospective, randomized, double-blind, placebo-controlled, parallel-group study was performed to evaluate the effect of AMR101 (4 g per day) on cardiovascular health and mortality in hypertriglyceridemic patients with cardiovascular disease or at high risk for cardiovascular disease. The intended expanded indication of the study was treatment with AMR101 as an add-on to statin therapy to reduce the risk of cardiovascular events in patients with clinical cardiovascular disease or with multiple risk factors for cardiovascular disease.
The primary objective of this study was, in patients at LDL-C goal while on statin therapy, with established cardiovascular disease (CVD) or at high risk for CVD, and hypertriglyceridemia (e.g., fasting triglycerides (TG) ≥200 mg/dL and <500 mg/dL), to evaluate the effect of AMR101 4 g daily on time from randomization to first occurrence of any component of the composite of the following major CV events: CV death; nonfatal MI; (including silent MI; electrocardiograms (ECGs) were performed annually for the detection of silent MIs); nonfatal stroke; coronary revascularization; and unstable angina determined to be caused by myocardial ischemia by invasive/non-invasive testing and requiring emergent hospitalization.
The key secondary objective of this study was to evaluate the effect of AMR101 4 g daily on the time from randomization to the first occurrence of the composite of following major CV events: CV death, nonfatal MI (including silent MI), and nonfatal stroke.
Other secondary objectives for this study were to evaluate the effect of therapy on time from randomization to the first occurrence of the following individual or composite endpoints: composite of CV death or nonfatal MI (including silent MI); fatal or nonfatal MI (including silent MI); non-elective coronary revascularization represented as the composite of emergent or urgent classifications; CV death; unstable angina determined to be caused by myocardial ischemia by invasive/non-invasive testing and requiring emergent hospitalization; fatal or nonfatal stroke; composite of total mortality, nonfatal MI (including silent MI), or nonfatal stroke; and total mortality.
The key tertiary objectives for this study were to evaluate the effect of AMR101 4 g daily from baseline and percent change from baseline in fasting triglycerides and LDL-C. […]

[1] = ITT population, listed as Icosapent Ethyl
[2] = clinically adjudicated arrhythmia sequelae, safety population
[3] = clinically adjudicated arrhythmia sequelae, safety population, vs placebo
[4] = determined programmatically, ITT
[5] = excludes patients with Type 1 or Type 2 diabetes at baseline, ITT
[6] = tertiary endpoint, first occurrence, ITT
[7] = vs placebo, listed as Icosapent Ethyl
[8] = vs placebo, listed as icosapent ethyl

Question: Which “New Heart Failure (newly emergent CHF), HR (95% CI)” value [1] does the source give for CC/C=C\C/C=C\C/C=C\C/C=C\C/C=C\CCCC(=O)OCC [AMR101, eicosapentaenoic acid ethyl ester] here?
Answer: The value was 0.95 (0.77, 1.17).

Question: What about the “New Heart Failure (newly emergent CHF), patients with event” value [1] of the same compound?
Answer: The value was “(4.1%)”.

Question: What about the “New Heart Failure Requiring Hospitalization, HR (95% CI)” value [1] of the same compound?
Answer: Its value is 0.97 (0.77, 1.22).

Question: And the “New Heart Failure Requiring Hospitalization, patients with event” value [1]?
Answer: The value was “(3.4%)”.

Question: What about the “New Onset Hypertension, HR (95% CI)” value [1] of the same compound?
Answer: The value was 0.86 (0.41-1.80).

Question: What about the “Peripheral Artery Disease, HR (95% CI)” value [1] of the same compound?
Answer: Its value is 0.97 (0.78-1.21).

Question: And the “Peripheral Artery Disease, patients with event” value [1]?
Answer: Its value is “(3.8) %”.

Question: What about the “Sudden Cardiac Death, HR (95% CI)” value [1] of the same compound?
Answer: The value was 0.69 (0.50, 0.96).

Question: And the “Sudden Cardiac Death, patients with event” value [1]?
Answer: The value was “(1.5%)”.

Question: And the “Transient Ischemic Attack, patients with event” value [1]?
Answer: The value was “(1.6%)”.

Question: And the “Urgent Revascularization, HR (95% CI)” value [1]?
Answer: The value was 0.66 (0.54, 0.79).

Question: And the “Urgent Revascularization, patients with event” value [1]?
Answer: Its value is “(4.4%)”.

Question: And the “Deaths with undetermined cause” value (Safety population)?
Answer: Its value is 36 (0.9) n (%).

Question: And the Non-CV deaths (Safety population)?
Answer: The Non-CV deaths was 100 (2.4) n (%).

Question: And the Total mortality (Safety population, N = 4089)?
Answer: Its Total mortality is 274 (6.7) n (%).

Question: And the “Coronary Revascularization, events (%)” value (clinically adjudicated arrhythmia sequelae, composite of emergent, urgent, elective, salvage, safety population)?
Answer: The value was “(9.2%)”.

Question: And the “Any Myocardial Infarction, events (%)” value [2]?
Answer: Its value is “(6.1%)”.

Question: And the “Any Stroke, events (%)” value [2]?
Answer: The value was “(2.4%)”.

Question: And the “Cardiac Arrest, events (%)” value [2]?
Answer: The value was “(0.5%)”.

Question: And the “Carotid Revascularization, events (%)” value [2]?
Answer: The value was “(0.8%)”.

Question: And the “Sudden Cardiac Death, events (%)” value [2]?
Answer: The value was “(1.5%)”.

Question: And the “Transient Ischemic Attack, events (%)” value [2]?
Answer: Its value is “(1.6%)”.

Question: And the “Any Myocardial Infarction, HR (95% CI)” value [3]?
Answer: The value was 0.69 (0.58 to 0.81).

Question: What about the “Any Stroke, HR (95% CI)” value [3] of the same compound?
Answer: Its value is 0.72 (0.55 to 0.93).

Question: And the “Cardiac Arrest, HR (95% CI)” value [3]?
Answer: The value was 0.52 (0.31 to 0.86).

Question: What about the “Sudden Cardiac Death, HR (95% CI)” value [3] of the same compound?
Answer: Its value is 0.69 (0.50 to 0.96).

Question: And the “Transient Ischemic Attack, HR (95% CI)” value [3]?
Answer: Its value is 1.32 (0.91 to 1.92).

Question: What about the “Coronary Revascularization, HR (95% CI) Icosapent Ethyl/Placebo” value (composite of emergent, urgent, elective, salvage, ITT) of the same compound?
Answer: The value was 0.66 (0.58-0.76).

Question: What about the “Coronary Revascularization, patients with event (%)” value (composite of emergent, urgent, elective, salvage, first occurrence, ITT) of the same compound?
Answer: The value was “(9.2) %”.

Question: And the “New Onset Hypertension, HR (95% CI) Icosapent Ethyl/Placebo” value [4]?
Answer: Its value is 0.86 (0.41-1.80).

Question: What about the “New Onset Hypertension, patients with event (%)” value [4] of the same compound?
Answer: The value was “(0.3) %”.

Question: And the “New Onset Type 2 Diabetes, HR (95% CI) Icosapent Ethyl/Placebo” value [5]?
Answer: Its value is 1.04 (0.73-1.47).

Question: What about the “New Onset Type 2 Diabetes, patients with event (%)” value [5] of the same compound?
Answer: Its value is “(3.8) %”.

Question: And the “Primary endpoint, risk reduction” value (post hoc analysis excluding patients with diarrhea)?
Answer: The value was 25%.

Question: And the “Cardiac Arrest, HR (95% CI) Icosapent Ethyl/Placebo” value (tertiary endpoint, ITT)?
Answer: Its value is 0.52 (0.31-0.86).

Question: And the “Elective Revascularization, HR (95% CI) Icosapent Ethyl/Placebo” value (tertiary endpoint, ITT)?
Answer: Its value is 0.68 (0.57-0.82).

Question: And the “Emergent Revascularization, HR (95% CI) Icosapent Ethyl/Placebo” value (tertiary endpoint, ITT)?
Answer: The value was 0.62 (0.42-0.92).

Question: What about the “Ischemic Stroke, HR (95% CI) Icosapent Ethyl/Placebo” value (tertiary endpoint, ITT) of the same compound?
Answer: The value was 0.64 (0.49-0.85).

Question: What about the “Newly Emergent CHF Requiring Hospitalization, HR (95% CI) Icosapent Ethyl/Placebo” value (tertiary endpoint, ITT) of the same compound?
Answer: Its value is 0.97 (0.77-1.22).

Question: What about the “Newly Emergent CHF, HR (95% CI) Icosapent Ethyl/Placebo” value (tertiary endpoint, ITT) of the same compound?
Answer: The value was 0.95 (0.77-1.17).

Question: And the “Peripheral Artery Disease, HR (95% CI) Icosapent Ethyl/Placebo” value (tertiary endpoint, ITT)?
Answer: Its value is 0.97 (0.78-1.21).

Question: And the “Salvage Revascularization, HR (95% CI) Icosapent Ethyl/Placebo” value (tertiary endpoint, ITT)?
Answer: Its value is 0.00 (0.00-0.00).

Question: And the “Sudden Cardiac Death, HR (95% CI) Icosapent Ethyl/Placebo” value (tertiary endpoint, ITT)?
Answer: Its value is 0.69 (0.50-0.96).

Question: What about the “Transient Ischemic Attack, HR (95% CI) Icosapent Ethyl/Placebo” value (tertiary endpoint, ITT) of the same compound?
Answer: The value was 1.32 (0.91-1.92).

Question: And the “Urgent Revascularization, HR (95% CI) Icosapent Ethyl/Placebo” value (tertiary endpoint, ITT)?
Answer: The value was 0.66 (0.54-0.79).

Question: And the “Amputation for PVD, patients with event (%)” value [6]?
Answer: The value was “(0.5) %”.

Question: And the “Cardiac Arrest, patients with event (%)” value [6]?
Answer: Its value is “(0.5) %”.

Question: And the “Cardiac Arrhythmia Requiring Hospitalization of ≥24 Hours, patients with event (%)” value [6]?
Answer: Its value is “(4.6) %”.

Question: What about the “Carotid Revascularization, patients with event (%)” value [6] of the same compound?
Answer: Its value is “(0.8) %”.

Question: And the “Elective Revascularization, patients with event (%)” value [6]?
Answer: The value was “(4.7) %”.

Question: What about the “Emergent Revascularization, patients with event (%)” value [6] of the same compound?
Answer: Its value is “(1.0) %”.

Question: What about the “Hemorrhagic Stroke, patients with event (%)” value [6] of the same compound?
Answer: Its value is “(0.3) %”.

Question: And the “Ischemic Stroke, patients with event (%)” value [6]?
Answer: The value was “(2.0) %”.

Question: What about the “Newly Emergent CHF Requiring Hospitalization, patients with event (%)” value [6] of the same compound?
Answer: Its value is “(3.4) %”.

Question: What about the “Newly Emergent CHF, patients with event (%)” value [6] of the same compound?
Answer: The value was “(4.1) %”.

Question: What about the “Peripheral Artery Disease, patients with event (%)” value [6] of the same compound?
Answer: Its value is “(3.8) %”.

Question: And the “Salvage Revascularization, patients with event (%)” value [6]?
Answer: The value was “(0.0) %”.

Question: And the “Sudden Cardiac Death, patients with event (%)” value [6]?
Answer: Its value is “(1.5) %”.

Question: What about the “Transient Ischemic Attack, patients with event (%)” value [6] of the same compound?
Answer: The value was “(1.6) %”.

Question: What about the “Urgent Revascularization, patients with event (%)” value [6] of the same compound?
Answer: The value was “(4.4) %”.

Question: And the “Total mortality utilizing known vital status data” value (through 31 May 2018, assessed as of database lock)?
Answer: Its value is 7.3%.

Question: And the “Key secondary composite endpoint, relative risk reduction” value (vs placebo)?
Answer: The value was 26.5%.

Question: What about the “Primary composite endpoint, relative risk reduction” value (vs placebo) of the same compound?
Answer: The value was 24.8%.

Question: And the “Key secondary composite endpoint, relative risk reduction” value [7]?
Answer: The value was 26%.

Question: What about the “Primary composite endpoint, relative risk reduction” value [7] of the same compound?
Answer: The value was 25%.

Question: What about the “Key secondary composite endpoint, relative risk reduction” value [8] of the same compound?
Answer: The value was 26%.

Question: And the “Primary composite endpoint, relative risk reduction” value [8]?
Answer: The value was 25%.
